Results taken from patent US20130005747A1, “METHOD FOR SELECTING A CANCER THERAPY” (Cyclacel Limited, priority 2010, published 2013).

Tests used:
H1650 = assay: Cell line IC50 (Table 3); type: cell-based, human; conditions: Lung
MDA-MB-436 = assay: Cell line IC50 (Table 3); type: cell-based, human; conditions: Ras WT, Breast
H2052 = assay: Cell line IC50 (Table 3); type: cell-based, human; conditions: Mesothelioma
LoVo = assay: Cell line IC50 (Table 3); type: cell-based, human; conditions: K-Ras G13D, Colon
H292 = assay: Cell line IC50 (Table 3); type: cell-based, human; conditions: Lung
Colo205 = assay: Cell line IC50 (Table 3); type: cell-based, human; conditions: Colon
NCI-H460 = assay: Cell line IC50 (Table 3); type: cell-based, human; conditions: K-Ras Q61H, Lung
A549 = assay: Cell line IC50 (Table 3); type: cell-based, human; conditions: K-Ras G12S, Lung
MESSA = assay: Cell line IC50 (Table 3); type: cell-based, human; conditions: Ras WT, sarcoma
MCF7 = assay: Cell line IC50 (Table 3); type: cell-based, human; conditions: Ras WT, Breast
NCI-H929 = assay: Cell line IC50 (Table 3); type: cell-based, human; conditions: N-Ras, Myeloma
A2780 = assay: Cell line IC50 (Table 3); type: cell-based, human; conditions: Ras WT, Ovary
H358 = assay: Cell line IC50 (Table 3); type: cell-based, human; conditions: Lung
cell lines of Table 3 = assay: Cell line panel of Table 3, summary over cell lines; type: cell-based, human; conditions: median over the cell lines of Table 3
Saos-2 = assay: Cell line IC50 (Table 3); type: cell-based; conditions: Homo sapiens, Ras WT, Osteosarcoma
HT-29 = assay: Cell line IC50 (Table 3); type: cell-based; conditions: Homo sapiens, Ras WT, Colon
CDK = CDK inhibitory profile; type: biochemical; conditions: compared with roscovitine
LP-1 = assay: Cell line IC50 (Table 3); type: cell-based; conditions: Homo sapiens, Ras WT, Myeloma
HCT 116 = assay: Cell line IC50 (Table 3); type: cell-based; conditions: Homo sapiens, K-Ras G13D, Colon
[1] = Homo sapiens, NCI-H1650, Ras WT
[2] = Homo sapiens, NCI-H2052, Ras WT
[3] = Homo sapiens, NCI-H358, K-Ras G12C

Row | SMILES | IC50 (H1650; [1]) [nM] | IC50 (MDA-MB-436; Homo sapiens) [nM] | IC50 (H2052; [2]) [nM] | IC50 (LoVo; Homo sapiens) [nM] | IC50 (Saos-2) [nM] | IC50 (H292; Homo sapiens, NCI-H292, Ras WT) [nM] | IC50 (Colo205; Homo sapiens, COLO 205, Ras WT) [nM] | IC50 (HT-29) [nM] | IC50 (NCI-H460; Homo sapiens) [nM] | IC50 (A549; Homo sapiens) [nM] | IC50 (MESSA; Homo sapiens, MES-SA) [nM] | IC50 (MCF7; Homo sapiens) [nM] | IC50 (NCI-H929; Homo sapiens) [nM] | IC50 (A2780; Homo sapiens) [nM] | IC50 (H358; [3]) [nM] | IC50 (cell lines of Table 3; Homo sapiens) [nM] | CDK inhibitory profile (in words) (CDK) | IC50 (LP-1) [nM] | IC50 (HCT 116) [nM] | other results
1 | CC[C@H](Nc1nc(NCc2cnc(C)cc2C)c2ncn(C(C)C)c2n1)[C@@H](C)O [Compound A] | – | – | – | – | – | – | – | – | – | – | – | – | – | – | – | – | – | – | – | IC50 (H1650; Ras WT): 500 nM; IC50 (MDA-MB-436): 400 nM; IC50 (H2052; Ras WT): 300 nM; IC50 (LoVo): 700 nM; IC50 (H292; Ras WT): 400 nM; IC50 (Colo205; Ras WT): 300 nM; IC50 (NCI-H460): 500 nM; IC50 (A549): 200 nM; IC50 (MESSA): 200 nM; IC50 (MCF7): 300 nM; IC50 (NCI-H929): 400 nM; IC50 (A2780): 400 nM; IC50 (H358; K-Ras G12C): 200 nM; IC50 (cell lines of Table 3): 400 nM
2 | CC[C@@H](Nc1nc(NCc2cccnc2)c2ncn(C(C)C)c2n1)C(C)(C)O [Compound B, (3R)-3-{9-isopropyl-6-[(pyridin-3-ylmethyl)-amino]-9H-purin-2-ylamino}-2-methyl-pentan-2-ol] | 6500 | 6600 | 5200 | 4500 | 5300 | 6600 | 4500 | 4100 | 2800 | 3000 | 3600 | 3600 | 5200 | 2600 | 2700 | 4500 | very similar CDK inhibitory profiles to roscovitine | – | – | –
3 | CC[C@H](Nc1nc(NCc2cccnc2)c2ncn(C(C)C)c2n1)C(C)(C)O [Compound C, (3S)-3-{9-isopropyl-6-[(pyridin-3-ylmethyl)-amino]-9H-purin-2-ylamino}-2-methyl-pentan-2-ol] | 3700 | 3400 | 2400 | 2200 | 2500 | 2300 | 2300 | 1700 | 2200 | 1600 | 1600 | 1600 | 2400 | 1100 | 800 | 2200 | very similar CDK inhibitory profiles to roscovitine | 1600 | 1600 | –
4 | CC[C@H](Nc1nc(NCc2cccnc2)c2ncn(C(C)C)c2n1)[C@@H](C)O [Compound D, (2R,3S)-3-({9-isopropyl-6-[(pyridin-3-ylmethyl)amino]-9H-purin-2-yl}amino)pentan-2-ol] | 1200 | 1000 | 900 | 800 | 1400 | 900 | 800 | 1200 | 700 | 500 | 500 | 400 | 800 | 400 | 300 | 800 | very similar CDK inhibitory profiles to roscovitine | 500 | 400 | –
